One data set deals with Acinetobacter baumannii. The data set is described as follows: Antibacterial activity against Acinetobacter baumannii ATCC 19606 assessed as inhibition of bacterial growth by tube microdilution assay. It counts as functional.
In data set [1] the test system is Staphylococcus aureus. Nature of the data set: Antibacterial activity against Staphylococcus aureus ATCC 6538 assessed as inhibition of bacterial growth by tube microdilution assay. The class given is functional.
The test system of another data set is HaCaT. Nature of the data set: Cytotoxicity against human HaCaT cells assessed as effect on cell viability at 3.13 to 400 ug/ml incubated for 24 hrs by CCK-8 assay. It counts as toxicity, cell-based. As to conditions: dose 3.13-400 µg/ml.
The test system of the next data set is HEK-293T. Nature of the data set: Cytotoxicity against HEK293T cells assessed as effect on cell viability at 3.13 to 400 ug/ml incubated for 24 hrs by CCK-8 assay. It counts as toxicity, cell-based. The note with it: human, dose 3.13-400 µg/ml.
A further data set relates to Erythrocyte. Nature of the data set: Induction of hemolysis in mouse red blood cells at 1.56 to 100 ug/ml incubated for 1 hr. The class given is toxicity, cell-based. As to conditions: dose 1.56-100 µg/ml.
The test system of data set [2] is Staphylococcus aureus. Nature of the data set: Bactericidal activity against Staphylococcus aureus ATCC 6538 assessed as elimination of bacterial cells at 5X to 10X MIC by killing kinetic assay. It counts as functional, organism-based.
In data set [3] the test system is Staphylococcus aureus. The data set is described as follows: Ratio of MIC for bactericidal activity against Staphylococcus aureus ATCC 6538 measured after 35 passages to MIC for bactericidal activity against Staphylococcus aureus ATCC 6538 measured after short period of drug exposure. It counts as functional.
The test system of data set [4] is Staphylococcus aureus. Nature of the data set: Induction of bacterial cell rupture in Staphylococcus aureus ATCC 6538 assessed as cell disruption at 5XMIC measured after 30 mins by scanning electron microscopy. The class given is functional, organism-based.
The next data set has as its system Cell membrane. Nature of the data set: Induction of membrane permeabilization in Staphylococcus aureus ATCC 6538 assessed as increase in fluorescence intensity at 5XMIC measured for 90 mins by propidium iodide staining based fluorescence analysis. It counts as subcellular.
Data set [5] deals with Staphylococcus aureus. The data set is described as follows: Induction of bacterial cell rupture in Staphylococcus aureus ATCC 6538 assessed as cell disruption at 5XMIC measured after 30 mins by transmission electron microscopy. The class given is functional, organism-based.
Data set [6] deals with Staphylococcus aureus. The data set is described as follows: Antibacterial activity against Staphylococcus aureus ATCC 6538 infected in BALB/c mouse assessed as inhibition of bacterial colonization on wounded skin at 0.5 mg/ml applied on skin and measured after 2 hrs. The class given is functional, organism-based.

Calls of active or inactive are those of the source. The rule behind the calls is not given here. Where a SMILES comes first, the peptide text is derived from it. [ ]: non-standard residue; d: D form. Hmpa(2S,3S) = CC[C@H](C)[C@H](O)C(=O)O

As for H-IKKFIKKVKKVKKAIK-OH, the MIC with Acinetobacter baumannii and in the data set on Staphylococcus aureus [1] was 4.68 µg/mL each time. Besides, the Activity result in the data set with HaCaT, in the data set on HEK-293T and in the data set with Erythrocyte was “Non-toxic” each time.
For the molecule H-KKFIKKVKKVKKAIKEGI-OH, the MIC came out at 37.5 µg/mL in the data set with Acinetobacter baumannii and 75 µg/mL in the data set with Staphylococcus aureus [1].
On the same counts, the results for H-RGIKKFIKKVKKVKKAIK-OH are 2.34 µg/mL and 2.34 µg/mL.
On the same counts, the results for H-RRGIKKFIKKVKKVKKAIKEGIKKGIKKLL-OH are 9.37 µg/mL and 9.37 µg/mL.
For the molecule `CC[C@H](C)[C@H](N)C(=O)N[C@@H](CCCCN)C(=O)N[C@@H](CCCCN)C(=O)NCC(=O)O[C@H](C(=O)N[C@@H](CCCCN)C(=O)N[C@@H](CCCCN)C(=O)N[C@@H](CC(C)C)C(=O)N[C@@H](CC(C)C)C(=O)O)[C@@H](C)CC` (H-IKKG[Hmpa(2S,3S)]KKLL-OH), the MIC in the data set with Acinetobacter baumannii and in the data set with Staphylococcus aureus [1] was above 200 µg/mL in each case. The Activity result in the data set with HaCaT, with HEK-293T and in the data set with Erythrocyte was “Non-toxic” each time.
Turning to H-SGGGSNIAHGPGGRRHIA-OH, the MIC in the data set on Acinetobacter baumannii and in the data set with Staphylococcus aureus [1] was above 200 µg/mL each time.
For the molecule H-IKKVKKVKKAIKEGIKKG-OH, the MIC in the data set on Acinetobacter baumannii and with Staphylococcus aureus [1] was 75 µg/mL in each case.
In the case of `CC[C@H](C)[C@H](NC(=O)CN)C(=O)N[C@@H](CCCCN)C(=O)N[C@@H](CCCCN)C(=O)NCC(=O)O[C@H](C(=O)N[C@@H](CCCCN)C(=O)N[C@@H](CCCCN)C(=O)N[C@@H](CC(C)C)C(=O)N[C@@H](CC(C)C)C(=O)O)[C@@H](C)CC` (H-GIKKG[Hmpa(2S,3S)]KKLL-OH), the MIC with Acinetobacter baumannii and in the data set on Staphylococcus aureus [1] was above 200 µg/mL in each case.
For the molecule H-KFIKKVKKVKKAIKEGIK-OH, the MIC came to 37.5 µg/mL in the data set with Acinetobacter baumannii and 75 µg/mL in the data set with Staphylococcus aureus [1].
As to H-IKKFIKKVKKVKKAIKEG-OH, the MIC in the data set on Acinetobacter baumannii was determined as 37.5 µg/mL; in the data set with Staphylococcus aureus [1], 75 µg/mL. The Activity result in the data set on HaCaT, with HEK-293T and in the data set on Erythrocyte was “Non-toxic” in each case.
H-FIKKVKKVKKAIKEGIKK-OH: the MIC with Acinetobacter baumannii was 37.5 µg/mL; in the data set with Staphylococcus aureus [1], 75 µg/mL.
For H-GIKKFIKKVKKVKKAIKE-OH, in that order: 37.5 µg/mL and 75 µg/mL.
Take `CN[C@H](CC(C)C)C(=O)N[C@H]1C(=O)N[C@@H](CC(N)=O)C(=O)N[C@H]2C(=O)N[C@H]3C(=O)N[C@H](C(=O)N[C@H](C(=O)O)c4cc(O)cc(O)c4-c4cc3ccc4O)[C@H](O)c3ccc(c(Cl)c3)Oc3cc2cc(c3O[C@@H]2O[C@H](CO)[C@@H](O)[C@H](O)[C@H]2O[C@H]2C[C@](C)(N)[C@H](O)[C@H](C)O2)Oc2ccc(cc2Cl)[C@H]1O` [VANCOMYCIN]: the results for the Activity entry in the data set with Staphylococcus aureus [2], with Staphylococcus aureus [4] and in the data set with Staphylococcus aureus [5] were “Active; Slow Killing Rate”, “Active; Limited Cell Disruption With Most Cells Remain Intact And Unaffected” and “Active; Limited Cell Disruption With Most Cells Remain Intact And Unaffected”, respectively. The Ratio in the data set on Staphylococcus aureus [3] was 4. For the same molecule, the result with Cell membrane was inactive. In addition, the result with Staphylococcus aureus [6] was Active.

Source of the values: ChEMBL document CHEMBL6092216, “Development of α-Helical Antimicrobial Peptides with Imperfect Amphipathicity for Superior Activity and Selectivity” (J Med Chem, 2024).
